Results: patent US12606537B2, “Thiophene derivatives” (priority 2019, dated 2026)
Where two headings read alike, the source gives them in different places.

Columns and labels:
[1] = target: T1, interaction of the PAS B domains of HIF-2α and HIF-1β (Homo sapiens, UniProt Q99814); assay: AlphaScreen protein protein interaction assay; format: biochemical
T1 construct: His6Gb1-TEV-GEFKGL-HIF2α (240-350aa)-G; His6 (N); Gb1 (protein G B1 domain) (N); TEV site (N)
Protocol: For the assessment of functional disruption of the interaction of the PAS B domains of HIF-2α and HIF-1β an AlphaScreen assay was set-up. The assay was performed in 384 well light gray Perkin Elmer microtiter plates in a total volume of 7 μl. […] The detection of the protein protein interaction was performed by adding AlphaLISA® Anti-FLAG Acceptor beads (fc 20 μg/mL) and AlphaScreen® Nickel Chelate Donor beads (fc 9 μg/mL) (both Perkin Elmer) and the reaction was incubated for 240 min at 23° C. in the dark. If donor and acceptor beads get in close proximity to each other caused by interaction of HIF2alpha PAS B with HIF-1ß PAS B domain it results in a luminescence signal at 615 nm after excitation at 680 nm. The PPI disruption activity of a compound was calculated directly from the loss in Alphascreen signal. The AlphaScreen signal was measured with an Envision multimode reader (Perkin Elmer LAS Germany GmbH). The control value used was the inhibitor-free reaction. The pharmacological zero value used was determined in the absence of HIF-1ß. The inhibitory values (IC50) were calculated using Assay analyser from GeneData.

HIF2a (240-350)-G = target: T2, HIF2a (240-350)-G (Homo sapiens, UniProt Q99814); assay: ITC (isothermal titration calorimetry) binding
T2 construct: The protein, HIF2a (240-350)-G, was prepared by recombinant overexpression; made in house
T2 sequence (Q99814 240-350): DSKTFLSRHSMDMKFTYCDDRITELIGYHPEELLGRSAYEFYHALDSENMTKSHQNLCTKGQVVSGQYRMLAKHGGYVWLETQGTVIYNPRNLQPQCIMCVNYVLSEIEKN
Protocol: ITC measurements were performed with a VP-ITC microcalorimeter from MicroCal/Malvern (UK). For all titration experiments the protein and the respective compounds were formulated in 30 mM HEPES buffer pH 7.5, 150 mM NaCl and 5 mM ß-mercaptoethanol. The protein, HIF2a (240-350)-G, was prepared by recombinant overexpression and multistep chromatography purification. Compounds were used from concentrated DMSO stock solutions. The final protein concentration in the injection syringe was 100 μM. Ligand stock solutions of 10 mM in DMSO were diluted to 10 μM concentrations with buffer and loaded into the sample cell. All buffers were adjusted to a final concentration of 1% (v/v) DMSO. Both, the titrate and titrant solutions were degassed prior to loading the calorimeter cell and injection syringe. […] The integrated heat data were fit with a one-site binding model to determine the apparent values for affinity, enthalpy and stoichiometry of binding.

HIF2α-HIF1β complex = assay: Cellular mechanistic assay: 786-O HRE-luc2P reporter assay; format: cell-based, human
Protocol: This reporter assay was designed to monitor binding of the HIF2α-HIF1β complex to specific DNA fragment called hypoxia response element (HRE) in physiologically relevant cell line. […] HRE is present in promoters of various genes regulated by hypoxia inducible factors. […] As a result, this reporter assay allows monitoring of HIF2α-HIF1β activity by determining the activity of produced luciferase. Cell culture is performed in RPMI media supplemented with 10% FBS, Sodium Pyruvate, Penicillin/Streptomycin, Glutamine, 200 μg/mL Hygromycin Gold.
The assay was performed in 384 well white, opaque microtiterplate with transparent bottom (Greiner Bio-one, Frickenhausen). […] 50 μl of cell suspension (2000 cells) per well were dispensed in microtiter plates and incubated over night at 37° C. in a 5% CO2 incubator. Compounds were added with Labcyte Echo dispenser (fc 0.3% DMSO, 9 concentrations dilution raw starting at 30 μM). Plates were incubated for 48 h at 37° C. in a 5% CO2 incubator. After this 45 μl of prewarmed ONE-Glo™ EX Reagent were added per well. Plates were placed on an orbital shaker at 1200 rpm for 3 minutes. Plates were sealed and luminescence was measured a Tecan Spark 20M microplate reader (end-point measurement with 0.1 second reading time). Values were normalized to DMSO ctrl and wells without cells (only medium ctrl). Decrease in luminescence directly correlates with inhibition of HIF2α activity. EC50 values and % of effect values were calculated fitting a variable-slope sigmoidal function using Ryvu Therapeutics (formerly Selvita S.A.) DRC application or GraphPad Prism software.

[2] = Homo sapiens, 786-0, 48 h, read-out: HRE-luc2P reporter assay IC50, 786-O HRE-luc2P cells, 48 h incubation, luciferase luminescence
[3] = read-out: HRE-luc2P reporter assay IC50, 786-O HRE-luc2P cells, 48 h incubation, luciferase luminescence

T1 sequence (Q99814 240-350): as above

Compound	IC50 [1] [nM]	Kd (HIF2a (240-350)-G) [nM]	IC50 (HIF2α-HIF1β complex; [2]) [nM]	IC50 (HIF2α-HIF1β complex; [3]) [nM]	IC50 ([1]; read-out: AlphaScreen IC50, disruption of HIF-2α / HIF-1β (ARNT) PAS B interaction, recombinant proteins 143 nM each) [nM]
CS(=O)(=O)c1sc(OC2CCOCC2)c2c1[C@H](O)C(F)(F)C2 [Example 22a, (4S)-5,5-difluoro-3-methanesulfonyl-1-(oxan-4-yloxy)-4H,5H,6H-cyclopenta[c]thiophen-4-ol]	< 50	100 to 1000	–	–	–
CS(=O)(=O)c1sc(Oc2ccc(F)c(F)c2)c2c1[C@H](O)C(F)(F)C2 [Example 34a, (4S)-1-(3,4-difluorophenoxy)-5,5-difluoro-3-methanesulfonyl-4H,5H,6H-cyclopenta[c]thiophen-4-ol]	50 to 1000	–	> 1000	–	–
CCC(Oc1sc(S(C)(=O)=O)c2c1CC(F)(F)[C@H]2O)C(F)(F)F (single isomer, unassigned) [Example 9a]	< 50	100 to 1000	> 1000	–	–
CS(=O)(=O)c1sc(Oc2cc(F)cc(Cl)c2)c2c1[C@H](O)C(F)(F)C2 [Example 30a, (4S)-1-(3-chloro-5-fluorophenoxy)-5,5-difluoro-3-methanesulfonyl-4H,5H,6H-cyclopenta[c]thiophen-4-ol]	> 1000	> 1000	> 1000	–	–
CS(=O)(=O)c1sc(Oc2ccc(F)c(F)c2)c2c1C(O)C(F)(F)C2 (racemic) [Example 24a, 1-(3,4-difluorophenoxy)-5,5-difluoro-3-methanesulfonyl-4H,5H,6H-cyclopenta[c]thiophen-4-ol]	> 1000	> 1000	> 1000	–	–
CC(Oc1sc(S(C)(=O)=O)c2c1CC(F)(F)[C@H]2O)C(F)F (single isomer, unassigned) [Example 14a]	–	–	–	50 to 1000	< 50
CCOc1sc(S(C)(=O)=O)c2c1CC(F)(F)[C@H]2O [Example 32a, (4S)-1-ethoxy-5,5-difluoro-3-methanesulfonyl-4H,5H,6H-cyclopenta[c]thiophen-4-ol]	> 1000	–	> 1000	–	–
CC(Oc1sc(S(C)(=O)=O)c2c1CC(F)(F)[C@H]2O)C(F)F (single isomer, unassigned) [Example 10a]	< 50	–	–	> 1000	–

More lines, now with the values ahead:

IC50 [1] [nM]	Kd (HIF2a (240-350)-G) [nM]	IC50 (HIF2α-HIF1β complex; [2]) [nM]	IC50 (HIF2α-HIF1β complex; [3]) [nM]	IC50 ([1]; read-out: AlphaScreen IC50, disruption of HIF-2α / HIF-1β (ARNT) PAS B interaction, recombinant proteins 143 nM each) [nM]	Compound
< 50	–	50 to 1000	–	–	CS(=O)(=O)c1sc(OCC(F)(F)F)c2c1[C@H](O)[C@@H](F)C2 [Example 17a, (4S,5S)-5-fluoro-3-methanesulfonyl-1-(2,2,2-trifluoroethoxy)-4H,5H,6H-cyclopenta[c]thiophen-4-ol]
< 50	–	> 1000	–	–	CS(=O)(=O)c1sc(OCCOC(F)(F)F)c2c1[C@H](O)C(F)(F)C2 [Example 23a, (4S)-5,5-difluoro-3-methanesulfonyl-1-[2-(trifluoromethoxy)ethoxy]-4H,5H,6H-cyclopenta[c]thiophen-4-ol]
> 1000	> 1000	> 1000	–	–	CS(=O)(=O)c1sc(Oc2cccc(C#N)c2)c2c1[C@H](O)C(F)(F)C2 [Example 31a, 3-{[(4S)-5,5-difluoro-4-hydroxy-3-methanesulfonyl-4H,5H,6H-cyclopenta[c]thiophen-1-yl]oxy}benzonitrile]
< 50	100 to 1000	> 1000	–	–	COC1(COc2sc(S(C)(=O)=O)c3c2CC(F)(F)[C@H]3O)CCC1 [Example 16a, (4S)-5,5-difluoro-3-methanesulfonyl-1-[(1-methoxycyclobutyl)methoxy]-4H,5H,6H-cyclopenta[c]thiophen-4-ol]
> 1000	> 1000	> 1000	–	–	CS(=O)(=O)c1sc(Oc2ccc(F)cc2)c2c1[C@H](O)C(F)(F)C2 [Example 29a, (4S)-5,5-difluoro-1-(4-fluorophenoxy)-3-methanesulfonyl-4H,5H,6H-cyclopenta[c]thiophen-4-ol]
